From publication PMC9786103, “Potent and Selective Inhibition of CYP1A2 Enzyme by Obtusifolin and Its Chemopreventive Effects” (Pharmaceutics, 2022)

Legend:
[1] = target: T1, CYP1A2 (Homo sapiens, UniProt P05177); assay: CYP1A2-mediated phenacetin O-deethylase (POD) activity in pooled human liver microsomes
T1 sequence (P05177 1-516): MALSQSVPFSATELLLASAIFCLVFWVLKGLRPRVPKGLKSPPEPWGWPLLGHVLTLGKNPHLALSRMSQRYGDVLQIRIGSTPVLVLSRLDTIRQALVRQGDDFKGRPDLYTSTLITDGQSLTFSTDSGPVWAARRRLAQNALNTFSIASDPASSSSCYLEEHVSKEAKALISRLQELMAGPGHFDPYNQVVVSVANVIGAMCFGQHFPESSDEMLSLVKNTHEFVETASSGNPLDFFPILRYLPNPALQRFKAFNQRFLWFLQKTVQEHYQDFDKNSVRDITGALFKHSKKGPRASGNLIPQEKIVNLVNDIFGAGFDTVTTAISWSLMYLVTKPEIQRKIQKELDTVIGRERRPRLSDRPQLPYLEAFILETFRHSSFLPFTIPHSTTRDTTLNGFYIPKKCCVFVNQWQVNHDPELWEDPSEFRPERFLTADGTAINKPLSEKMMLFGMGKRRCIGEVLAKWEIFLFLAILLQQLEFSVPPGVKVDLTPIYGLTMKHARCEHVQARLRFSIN
Description: (§1) The inhibitory potential of five major bioactive compounds from Cassiae semen against CYP1A2-mediated phenacetin O-deethylase (POD) activity was evaluated using previously developed methods with minor modifications. Briefly, the compounds were dissolved in methanol. The incubation mixtures containing pHLMs (0.25 mg/mL), phenacetin (100 µM), and inhibitor (0, 0.5, 2, 5, 20, or 50 µM) were pre-incubated at 37 °C for 5 min. An NADPH-generating system (NGS, 1.3 mM β-NADP^+, 3.3 mM G6P, 1.0 U/mL G6PDH, and 3.3 mM magnesium chloride) was introduced after pre-incubation to initiate the reaction, and further incubated for 15 min. The reaction was quenched by the addition of 50 µL ice-cold acetonitrile containing internal standard (IS; 7nM trimipramine). Aliquots of supernatants were analyzed by liquid chromatography–tandem mass spectrometry (LC-MS/MS, LCMS 8060 system, Shimadzu, Kyoto, Japan). All microsomal incubations were repeated three times.
(§2) The inhibitory potential of obtusifolin against the biotransformation of eight P450 probe substrates was examined using previously reported methods with slight changes. The following P450 isoform-specific substrates were used: coumarin (CYP2A6); bupropion (CYP2B6); amodiaquine (CYP2C8); tolbutamide (CYP2C9); omeprazole (CYP2C19); dextromethorphan (CYP2D6); chlorzoxazone (CYP2E1); and midazolam (CYP3A). Mixtures of pooled HLM, P450 substrates, and obtusifolin (0, 0.05, 0.2, 0.5, 2, 5, or 10 µM for CYP1A2; and 0, 0.5, 2, 5, 20, or 50 µM for the other P450 isoforms) were pre-incubated (5 min, 37 °C). NGS was introduced to start the reaction, which was followed by an additional incubation (15 min). Following reaction termination, aliquots of the supernatants were analyzed with LC-MS/MS.
(§3) Reverse phase column (Kinetex XB-C18, 100 × 2.10 mm; Phenomenex, Torrance, CA, USA) and triple-quadrupole mass spectrometer (LCMS 8060, Shimadzu, Kyoto, Japan) with an ultra high-performance LC system (Nexera X2, Shimadzu) analyze all the metabolites. Mobile phases were 0.1% formic acid in water (A) and 0.1% formic acid in acetonitrile (B). The elution condition was as follows: 0–0.5 min (B: 8%), 0.5–5 min (B: 8%→60%), 5–6 min (B: 60%), 6–6.1 min (B: 60%→8%), and 6.1–10 min (B: 8%) for the analysis of metabolites of the nine P450 substrates; and 0–1 min (B: 5%), 1–5 min (B: 5%→90%), and 5.1–7 min (B: 90%→5%) for the analysis of resorufin. Electrospray ionization was performed in the positive- and negative-ion modes at 4.0 and −3.5 kV, respectively. For each metabolite, quantitation was carried out in selected reaction monitoring (SRM) mode using the following precursor-to-product ion transition: m/z 152 > 110 for acetaminophen (CYP1A2), m/z 214 > 186 for resorufin (CYP1A1 and CYP1A2), m/z 163 > 107 for 7-hydroxycoumarin (CYP2A6), m/z 256 > 238 for 6-hydroxybupropion (CYP2B6), m/z 328 > 283 for N-desethylamodiaquine (CYP2C8), m/z 287 > 89 for 5-hydroxytolbutamide (CYP2C9), m/z 362 > 214 for 4-hydroxyomeprazole ([…]), m/z 258 > 157 for dextrorphan (CYP2D6), m/z 184 > 120 for 6-hydroxychlorzoxazone (CYP2E1), m/z 342 > 203 for 1′-hydroxymidazolam (CYP3A), and m/z 295 > 100 for trimipramine (IS).
(§4) WinNonlin software (Pharsight, Mountain View, CA, USA) was used to calculate IC50 values. Based on Lineweaver–Burk double reciprocal plots, secondary plots of Lineweaver–Burk plots versus obtusifolin concentrations, and visual inspection of Dixon plots, the type of inhibition and apparent kinetic parameters for inhibitory activity (Ki) were estimated.

[2] = target: T2, CYP1A2 versus CYP2A6, CYP2B6, CYP2C8, CYP2C9, CYP2C19, CYP2D6, CYP2E1, CYP3A (Homo sapiens, UniProt P05177); assay: as above; conditions: human, pooled human liver microsomes
T2 sequence (P05177 1-516): T1 sequence (P05177 1-516)
Description: as §1, §2, §3, §4

[3] = target: T3, rCYP1A1 (Homo sapiens, UniProt P04798); assay: Phenacetin O-deethylation (POD) in recombinant CYP1A1; format: biochemical
T3 construct: purchased SPMED (Busan, Republic of Korea)
T3 sequence (P04798 1-512): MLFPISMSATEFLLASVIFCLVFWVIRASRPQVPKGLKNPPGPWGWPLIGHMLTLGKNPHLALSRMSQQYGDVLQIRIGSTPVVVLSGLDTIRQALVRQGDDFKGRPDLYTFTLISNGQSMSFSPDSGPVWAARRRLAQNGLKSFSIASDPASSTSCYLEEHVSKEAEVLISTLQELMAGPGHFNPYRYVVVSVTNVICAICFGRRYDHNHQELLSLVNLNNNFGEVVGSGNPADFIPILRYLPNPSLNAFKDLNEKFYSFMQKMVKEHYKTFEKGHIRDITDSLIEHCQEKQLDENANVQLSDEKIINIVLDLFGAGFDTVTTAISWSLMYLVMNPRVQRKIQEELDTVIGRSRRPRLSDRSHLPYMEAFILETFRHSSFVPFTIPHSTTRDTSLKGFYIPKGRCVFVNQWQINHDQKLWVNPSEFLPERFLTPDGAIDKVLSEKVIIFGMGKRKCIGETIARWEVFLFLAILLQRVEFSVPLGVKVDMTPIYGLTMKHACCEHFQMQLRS

IC50 [1]: 190 ± 10 nM
inhibition at 15 min, 0.5 µM ([1]; human, pooled human liver microsomes, probe phenacetin (100 µM)): 73.3%
Selectivity for rCYP1A1 over rCYP1A2 ([3]; CYP1A-mediated POD activity): over six-fold
IC50 ([3]; substrate phenacetin (POD)): 60 ± 20 nM
SMILES: COc1c(O)c(C)cc2c1C(=O)c1c(O)cccc1C2=O [Obtusifolin, obtusifolin]
selectivity ratio at 15 min [2]: > 150
